Source: patent US20230398178A1, “METHODS AND COMPOSITIONS FOR TREATING OR PREVENTING A VAGINAL INFECTION OF GARDNERELLA VAGINALIS” (Massachusetts Institute of Technology, priority 2022, published 2023)
“Also recorded” adds a separate entry of the source.

System: vaginolysin (vly)
Format: cell-based, Gardnerella vaginalis

C[C@@H](O)[C@H](O)[C@H](O)[C@@H](O)C=O [D-fucose, 6-deoxy-D-galactose]
effect on vly expression, in words: expressed less vaginolysin; also recorded: significantly reduce vly expression
